From patent US20220273637A1, “NOVEL PFAR-INHIBITING COMPOUNDS” (UNIVERSITE DE BRETAGNE OCCIDENTALE (UBO), priority 2019, published 2022)

Test system: PFAR (protein folding activity of ribosome)
Experiment: Inhibition of PFAR in yeast cells (LuxAB luciferase refolding after heat shock)
Format: cell-based
Details: not given

Row | SMILES | inhibition of PFAR
1 | CN1C(=O)CN=C(c2ccccc2)c2cc(Cl)ccc21 [diazepam] | do not inhibit PFAR
2 | c1ccc(CN(CC2=NCCN2)c2ccccc2)cc1 [antazoline] | do not inhibit PFAR

Test system: PABPN1 aggregates
Experiment: not given
Format: cell-based, murine
Details: not given

Row | SMILES | nuclei having aggregates of the PABPN1 protein | activity compared with guanabenz (positive control)
3 | CSc1ccc2c(c1)N(CCC1CCCCN1C)c1ccccc1S2 (centres unmarked) [thioridazine] | reduce the amount of muscle cell nuclei containing PABPN1 aggregates | 
4 | CN1CCCC(CC2c3ccccc3Sc3ccccc32)C1 (centres unmarked) [metixene] | reduce the amount of muscle cell nuclei containing PABPN1 aggregates | more active than guanabenz
5 | CN(C)CCCN1c2ccccc2Sc2ccc(C(F)(F)F)cc21 [triflupromazine] | negative | 
6 | CC(C)(C)c1ccc(C(=O)CCCN2CCC(OC(c3ccccc3)c3ccccc3)CC2)cc1 [ebastine] | reduce the amount of muscle cell nuclei containing PABPN1 aggregates | 
7 | COc1ccc(CCN2CCC(Nc3nc4ccccc4n3Cc3ccc(F)cc3)CC2)cc1 [astemizole] | reduce the amount of muscle cell nuclei containing PABPN1 aggregates | 
8 | CN1CCCC(n2nc(Cc3ccc(Cl)cc3)c3ccccc3c2=O)CC1 (centres unmarked) [azelastine] | reduce the amount of muscle cell nuclei containing PABPN1 aggregates | 
9 | CN1C(=O)CN=C(c2ccccc2)c2cc(Cl)ccc21 [diazepam] | negative | 
10 | CN1CCC[C@@H]1CCO[C@](C)(c1ccccc1)c1ccc(Cl)cc1 [clemastine] | negative | 
11 | CN(C)C(=O)C(CCN1CCC(O)(c2ccc(Cl)cc2)CC1)(c1ccccc1)c1ccccc1 [loperamide] | reduce the amount of muscle cell nuclei containing PABPN1 aggregates | 
12 | CNCC[C@H](Oc1cccc2ccccc12)c1cccs1 [duloxetine] | reduce the amount of muscle cell nuclei containing PABPN1 aggregates | 

Test system: Drosophila expressing PABPN1-17ala
Experiment: Drosophila model of OPMD (PABPN1-17ala): abnormal wing position
Format: in vivo
Details: 2 mM in food, day 3 to day 6, chi-squared test
Excerpt: The model used is a fruit fly model for OPMD in which the mammalian protein PABPN1 with a repetition of 17 alanines (PABPN1-17a1a) is specifically expressed in the muscles of Drosophila (Chartier et al. 2006; Chartier et al. 2015). These models reproduce the characteristics of the disease, i.e. weakness and progressive muscular degeneration, and also the formation of nuclear PABPN1 aggregates. Thus, the expression of PABPN1-17ala in the indirect wing muscles leads to an abnormal wing posture, resulting from the disorder of the muscle function and degeneration of the muscles (Chartier et al. 2006). […]
The compounds were administered in the food, prepared as follows: an instant Drosophila medium (Carolina Biological Supply Company) was reconstituted in each tube with a 1% solution of yeast in water, supplemented by the compounds dissolved in DMSO with an increasing concentration, or with DMSO alone. […] The effect of the compounds was quantified by the daily measurement of the number of flies presenting an abnormal wing posture, corresponding to the flies expressing PABPN1-17ala, from day 3 to day 6 of the adult age: groups of five males per condition are placed in an empty tube and the number of males having an abnormal wing position is recorded by direct observation of the flies in the tube, without anesthesia.

Row | SMILES | number of flies presenting an abnormal wing posture relative to DMSO
13 | CN1CCCC(CC2c3ccccc3Sc3ccccc32)C1 (centres unmarked) [metixene] | significant reduction
